Tests used:
[1] = tested on: human embryonic kidney 293 cells; settings: clonal HEK 293 cells challenged with caffeine; cited from earlier work
Jurkat cells = experiment: Calcium response of trapped Fluo-3-loaded Jurkat cells to ionomycin on chip (cell trap arrays with concentration gradient generator); type: cell-based, human
Method: Jurkat E6-1 human acute T cell lymphoma cells (ATCC) were cultured in RPMI 1640 medium with L-glutamine (Sigma-Aldrich, St. Louis, Mo.) with 10 mM HEPES, 1 mM sodium pyruvate, 1×MEM nonessential amino acids, and 100 units mL^−1 penicillin streptomycin (Cellgro), supplemented with 10% certified heat inactivated fetal bovine serum (Sigma-Aldrich, St. Louis, Mo.), at 37° C. in a humidified 5% CO2 incubator. For nuclei visualisation, Jurkat cells were incubated with Hoechst 33258, at a final concentration of 1 μg mL^−1, at 37° C. for 20 minutes.
Cells were checked for viability using Live/Dead stain (Invitrogen) following the manufacturer's protocol. For high resolution microscopy, 10^6 cells were fixed in a 5% formalin solution (Sigma-Aldrich, St. Louis, Mo.) for 15 minutes at 37° C., washed three times with cold PBS, and resuspended in 100 μL of ice cold 90% methanol. Immunostaining was performed on fixed cells using […] for DNA staining, mouse α-calnexin (Abcam) for ER staining, and rabbit α-profilin-1 (Cell Signaling), as a cytoplasmic localized protein. Incubation with the primary antibody for one hour at room temperature was followed by three wash steps with a solution of 2% BSA in PBS and incubation for 40 minutes at room temperature with the following secondary antibodies: Alexa 488 α-mouse (Invitrogen) and goat α-rabbit TRITC (Southern Biotech). To monitor calcium signaling, Jurkat cells were incubated with 5 μM Fluo-3 (Invitrogen) for 20 minutes at 37° C., washed with cold PBS, and loaded into the cell traps. Trapped cells were stimulated with ionomycin (Sigma, St. Louis, Mo.) at various concentrations to release intracellular calcium.
Before each experiment, the microfluidic devices were primed using a solution of 2% BSA in PBS to remove any air bubbles and limit undesirable cell adhesion to the wall. A pressure difference of 3.5 kPa (5.5 kPa for devices with upstream serial-dilution gradient generator) created by gravity was used to drive the flow, resulting to an average flow rate of ˜2 μL h^−1. Cell loading was obtained by pipetting 2 μL of 5×10^6 cell mL^−1 of cell suspension on the chip positioned on the microscope stage. Further experiments (staining, stimulation) were performed by adding 5 μL of 4× chemicals in the inlet hole and flowing over the trapped cells for the desired time. All experiments were performed in a microcontrolled environment (temperature set at 37° C. in a humidified 5% CO2 environment).
A […] (SIMCA-P, Umetrics) was run on a known dataset of objects to determine the two most informative predictors of the number of cells contained in an object. The perimeter and the extent (ratio of pixels in the object to pixels in the total bounding box) were found as being the most informative. To quantify single cell trapping efficiency, the distribution of objects in the perimeter-extent space was fitted to a 2-component Gaussian mixture model for each chamber trap array. The maximum likelihood parameters from each of the two subpopulations were retrieved and represented respectively the percentage of single cell objects and multiple cell objects. Single cell response intensities were obtained by tracking the mean intensity of each object considered as a single cell in the overlaid mask and image over time.
The present trap arrays can also be easily integrated with upstream microfluidic components capable of multiplexing experiments, where cells can be exposed to different extracellular conditions on a single chip. […] After loading cells containing Fluo-3, more than 1,000 individual cells were monitored for an hour after the addition of different concentrations of the calcium ionophore ionomycin. Ionomycin increases intracellular calcium via mobilization of both extracellular and intracellular calcium stores in T cells. As expected, increased concentration of stimulus lead to increased average intracellular calcium concentration (FIG. 17). […]

| SMILES | cells responding with an elevation in intracellular calcium [1] [%] | % Responding Cells (Jurkat cells; ionomycin 0.08 μM, chamber 8, 250 tracked cells) [%] | % Responding Cells (Jurkat cells; ionomycin 0.2 μM, chamber 7, 306 tracked cells) [%] | % Responding Cells (Jurkat cells; ionomycin 0.5 μM, chamber 6, 273 tracked cells) [%] | % Responding Cells (Jurkat cells; ionomycin 0.8 μM, chamber 5, 287 tracked cells) [%] | % Responding Cells (Jurkat cells; ionomycin 1.4 μM, chamber 4, 322 tracked cells) [%] | % Responding Cells (Jurkat cells; ionomycin 1.8 μM, chamber 3, 263 tracked cells) [%] | % Responding Cells (Jurkat cells; ionomycin 2.2 μM, chamber 2, 328 tracked cells) [%] | % Responding Cells (Jurkat cells; ionomycin 2.5 μM, chamber 1, 342 tracked cells) [%] |
| --- | --- | --- | --- | --- | --- | --- | --- | --- | --- |
| Cn1c(=O)c2c(ncn2C)n(C)c1=O [caffeine] | 40 |  |  |  |  |  |  |  |  |
| C[C@H](CCC(=O)O)C[C@H](C)C[C@H](C)C(=O)/C=C(\O)[C@H](C)C[C@H](C)C/C=C/[C@@H](C)[C@@H](O)[C@@H](C)[C@@H](O)C[C@@H]1CC[C@@](C)([C@H]2CC[C@@](C)([C@@H](C)O)O2)O1 [ionomycin] |  | 4 | 17 | 19.1 | 25.4 | 31.1 | 31.9 | 33.2 | 44 |

Source: patent publication US9957472B2, “Deterministic high-density single-cell trap array” (Georgia Tech Research Corporation, priority 2011, dated 2018)
